SMILES strings stand for the structures.

human recombinant PDE4B1 enzyme, sequence (Q07343 whole entry): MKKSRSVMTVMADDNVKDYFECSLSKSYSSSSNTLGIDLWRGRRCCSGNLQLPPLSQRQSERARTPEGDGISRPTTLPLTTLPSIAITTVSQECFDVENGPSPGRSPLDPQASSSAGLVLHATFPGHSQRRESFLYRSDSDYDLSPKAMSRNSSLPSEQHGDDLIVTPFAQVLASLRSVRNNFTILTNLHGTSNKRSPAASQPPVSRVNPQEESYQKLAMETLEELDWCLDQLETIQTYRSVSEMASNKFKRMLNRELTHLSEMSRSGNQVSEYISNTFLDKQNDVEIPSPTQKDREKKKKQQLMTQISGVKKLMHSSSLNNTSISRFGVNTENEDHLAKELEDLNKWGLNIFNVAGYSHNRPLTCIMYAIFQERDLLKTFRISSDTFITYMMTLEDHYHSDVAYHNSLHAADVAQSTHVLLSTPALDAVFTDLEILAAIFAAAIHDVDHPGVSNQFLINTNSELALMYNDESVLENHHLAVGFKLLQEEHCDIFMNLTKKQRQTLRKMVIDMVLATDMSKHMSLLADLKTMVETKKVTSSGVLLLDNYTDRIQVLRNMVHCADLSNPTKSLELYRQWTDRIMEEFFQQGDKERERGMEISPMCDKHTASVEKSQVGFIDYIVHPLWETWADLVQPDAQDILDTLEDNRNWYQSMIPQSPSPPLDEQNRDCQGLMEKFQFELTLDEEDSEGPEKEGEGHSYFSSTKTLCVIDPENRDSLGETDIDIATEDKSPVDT

The experiment deals with human recombinant PDE4B1 enzyme (Homo sapiens (Human), UniProt Q07343). Description: Inhibition of PDE4B1 activity by cAMP HTRF assay. It is filed as biochemical. The note with it: human recombinant PDE4B1, cAMP 40 nM, pH 7.4. How it is done:
Determination of the inhibition of the compounds on PDE4B1 activity by using cAMP HTRF® assay
The inhibitory effect of the compounds on human PDE4B1 enzyme activity was determined by quantifying the 5′-adenosine monophosphate (5′-AMP) formed from 3′,5′-cyclic adenosine monophosphate (cAMP).
The test compound or water (control) and human recombinant PDE4B1 enzyme (4.8 U) were mixed in a buffer solution (pH 7.4) consisting of 1× Hanks' balanced salt solution (HBSS), 5 mM HEPES, 3 mM MgCl2, and 0.1% BSA and incubated for 10 min. A cAMP enzyme substrate (final concentration 40 nM) was added, and the mixture was incubated at room temperature for 60 min. Then a fluorescent acceptor (Dye2 labeled with cAMP), a fluorescent donor (anti-cAMP antibody labeled with europium cryptate) and a non-specific phosphodiesterase inhibitor IBMX (3-isobutyl-1-methyl xanthine; final concentration 1 mM) were added. After 60 min, the fluorescence transfer related to the amount of remaining cAMP was measured on a microplate reader (Rubystar, BMG) at λex=337 nm, λem=620 nm and λem=665 nm. The enzyme activity is calculated from the ratio of the signals measured at 665 nm and 620 nm. The results are expressed as percent inhibition of the enzyme activity of the control (without PDE4 inhibitor). The enzyme was omitted for measurement of the basic control. The IC50 value (IC50=the concentration that caused the half-maximum inhibition of the specific activity of the control) is derived from dose-response measurements with eight different concentrations (n=2; repeated 2 times)
(In TR-FRET formats the signal depends on donor and acceptor labels being close together.)
Broadly, the IC50 is the concentration needed to halve the response being measured. Take `CNC(=O)COc1cc(/C=C/n2c(C)cc(=O)cc2C)ccc1OC` [Example 71, (E)-2-(5-(2-(2,6-dimethyl-4-carbonylpyridin-1(4H)-yl)ethenyl)-2methoxyphenoxy)-N-methylacetamide]: the IC50 turned out to be 1420 nM.
In the case of `COc1ccc(/C=C/n2c(C)cc(=O)cc2C)cc1O[C@@H]1CCS(=O)(=O)C1` [Example 87, (R,E)-1-(3-((1,1-dioxotetrahydrothiophen-3-yl)oxy)-4-methoxy-styryl)-2,6-dimethylpyridin-4(1H)-one] it was 78 nM; in that of `COc1ccc(/C=C/n2c(C)cc(=O)cc2C)cc1O[C@@H]1CC[S+]([O-])C1` (single isomer, unassigned) [Example 86-1], 310 nM; in that of `COc1ccc(C(=O)Cn2c(C)cc(=O)cc2C)cc1O` [Example 10, 1-(2-(3-hydroxy-4-methoxyphenyl)-2-oxoethyl)-2,6-dimethylpyridin-4(1H)-one], 3300 nM.
Regarding `COc1ccc(/C(Cn2c(C)cc(=O)cc2C)=N/OC[S+](C)[O-])cc1OCC1CC1` (stereo not drawn) [Example 43, (Z)-1-(2-(3-cyclopropylmethoxy-4-methoxyphenyl)-2-(methylsulfoxidemethoxyimido)ethyl)-2,6-dimethylpyridin-4(1H)-one], the IC50 worked out at 4.9 nM.
Next, `C/C=C/C(=O)OC(Cn1c(C)cc(=O)cc1C)c1ccc(OC)c(OCC2CC2)c1` (stereo not drawn) [Example 6, (1-(3-cyclopropylmethoxy-4methoxyphenyl)-2-(2,6-dimethyl-4-carbonylpyridin-1(4H)-yl)ethyl) crotonate]: 19 nM; `COc1ccc(/C(C#N)=C/n2c(C)cc(=O)cc2C)cc1OC` [Example 115]: 9.9 nM.
In the case of `COc1ccc(C(=O)Cn2c(C)cc(=O)cc2C)cc1OC(C)C` [Example 14, 1-(2-(3-isopropoxy-4-methoxyphenyl)-2-oxoethyl)-2,6-dimethylpyridin-4(1H)-one] it was 21 nM; in that of `COc1ccc(C(=O)Cn2c(C)cc(=O)cc2C)cc1OCSC` [Example 32, 1-(2-(3-methylthiomethoxy-4-methoxyphenyl)-2-oxoethyl)-2,6-dimethylpyridin-4(1H)-one], 13.9 nM.
In the case of `CNC(=O)/C(=C\n1c(C)cc(=O)cc1C)c1ccc(OC)c(OCC2CC2)c1` [Example 108, (Z)-2-(3-cyclopropylmethoxy-4-methoxyphenyl)-3-(2,6-dimethyl-4-carbonylpyridin-1(4H)-yl)-N-methylacrylamide] it was 760 nM; in that of `COc1ccc(C(=O)Cn2c(C)cc(=O)cc2C)cc1OC1CC1` [Example 19, 1-(2-(3-cyclopropyloxy-4-methoxyphenyl)-2-oxoethyl)-2,6-dimethylpyridin-4(1H)-one], 4.6 nM.
Regarding `Cc1cc(=O)cc(C)n1/C=C/c1ccc(OC(F)F)c(OCCS(C)(=O)=O)c1` [Example 95, (E)-1-(3-methylsulfoneethoxy-4-difluoromethoxystyryl)-2,6-dimethylpyridin-4(1H)-one], the IC50 came to 260 nM.
With `Cc1cc(=O)cc(C)n1/C=C/c1ccc(OC(F)F)c(O[C@H]2CC[S+]([O-])C2)c1` (single isomer, unassigned) [Example 98-1], the IC50 worked out at 97 nM.
As to `COc1ccc(/C=C/n2c(C)cc(=O)cc2C)cc1O[C@@H]1CC[S+]([O-])C1` (single isomer, unassigned) [Example 86-2], the IC50 stood at 81 nM.
For `COc1ccc(/C=C/n2c(C)cc(=O)cc2C)cc1OC1CCCO1` (stereo not drawn) [Example 70, (E)-1-((3-(tetrahydrofuran-2-yl)oxy-4-methoxy)-styryl)-2,6-dimethylpyridin-4(1H)-one], the IC50 came out at 8.1 nM.
In the case of `COc1ccc(/C=C/n2c(C)cc(=O)cc2C)cc1O[C@H]1CC[S+]([O-])C1` (single isomer, unassigned) [Example 83-2] it was 106 nM; in that of `Cc1cc(=O)cc(C)n1/C=C/c1ccc(OC(F)F)c(OC2CCSC2)c1` (stereo not drawn) [Example 96, (E)-1-((3-(tetrahydrothiophen-3-yl)oxy-4-difluoromethoxy)-styryl)-2,6-dimethylpyridin-4(1H)-one], 2.4 nM.
In the case of `C=CCOc1cc(/C=C/n2c(C)cc(=O)cc2C)ccc1OC` [Example 64, (E)-1-(3-allyloxy-4-methoxy-styryl)-2,6-dimethylpyridin-4(1H)-one] it was 43 nM.
Next, `COc1ccc(C(=O)Cn2c(C)cc(=O)cc2C)cc1OCC[S+](C)[O-]` (stereo not drawn) [Example 36, 1-(2-(3-methylsulfoxideethoxy-4-methoxyphenyl)-2-oxoethyl)-2,6-dimethylpyridin-4(1H)-one]: 1250 nM.
For the compound `COc1ccc(/C=C/n2c(C)cc(=O)cc2C)cc1OC[S+](C)[O-]` (stereo not drawn) [Example 75, (E)-1-(3-methylsulfoxidemethoxy-4-methoxystyryl)-2,6-dimethylpyridin-4(1H)-one], the IC50 came out at 290 nM.
Consider `C#CCOc1cc(C(=O)Cn2c(C)cc(=O)cc2C)ccc1OC` [Example 28, 1-(2-(3-propargyloxy-4-methoxyphenyl)-2-oxoethyl)-2,6-dimethylpyridin-4(1H)-one], for which the IC50 is 92 nM.
On to `COc1ccc(C(Cn2c(C)cc(=O)cc2C)OC(=O)C=C(C)C)cc1OCC1CC1` (stereo not drawn) [Example 7, (1-(3-cyclopropylmethoxy-4methoxyphenyl)-2-(2,6-dimethyl-4-carbonylpyridin-1(4H)-yl)ethyl) 3-methylcrotonate], for which the IC50 came to 5.7 nM.
In the case of `COc1ccc(C(C#N)=Cn2c(C)cc(=O)cc2C)cc1OCC1CC1` (stereo in doubt) [Example 106, (E)-1-(2-(3-cyclopropylmethoxy-4-methoxyphenyl)-2-cyanoethenyl)-2,6-dimethylpyridin-4(1H)-one] it was 2.7 nM; in that of `COc1ccc(C(=O)Cn2c(C)cc(=O)cc2C)cc1OCC1CC1` [Example 20, 1-(2-(3-cyclopropylmethoxy-4-methoxyphenyl)-2-oxo)ethyl-2,6-dimethylpyridin-4(1H)-one], 13 nM; in that of `COc1ccc(C(=O)Cn2c(C)cc(=O)cc2C)cc1OCS(C)(=O)=O` [Example 34, 1-(2-(3-methylsulfonemethoxy-4-methoxyphenyl)-2-oxoethyl)-2,6-dimethylpyridin-4(1H)-one], 420 nM.
In the case of `COc1ccc(C(=O)Cn2c(C)cc(=O)cc2C)cc1OC1CCCCC1` [Example 24, 1-(2-(3-cyclohexyloxy-4-methoxyphenyl)-2-oxoethyl)-2,6-dimethylpyridin-4(1H)-one] it was 23 nM; in that of `CO/N=C(\Cn1c(C)cc(=O)cc1C)c1ccc(OC)c(OCC2CC2)c1` [Example 39, (Z)-1-(2-(3-cyclopropylmethoxy-4-methoxyphenyl)-2-(methoxyimido)ethyl)-2,6-dimethylpyridin-4(1H)-one], 1070 nM; in that of `C#CCOc1cc(/C=C/n2c(C)cc(=O)cc2C)ccc1OC` [Example 66], 270 nM.
Take `CO/N=C(/Cn1c(C)cc(=O)cc1C)c1ccc(OC)c(OCC2CC2)c1` [Example 40, (E)-1-(2-(3-cyclopropylmethoxy-4-methoxyphenyl)-2-(hydroxymethylimido)ethyl)-2,6-dimethylpyridin-4(1H)-one]: the IC50 is 6.8 nM.
In the case of `COc1ccc(C(O)Cn2c(C)cc(=O)cc2C)cc1OCC1CC1` (stereo not drawn) [Example 1, 1-(2-(3-cyclopropylmethoxy-4-methoxyphenyl)-2-hydroxyethyl)-2,6, dimethylpyridin-4(1H)-one] it was 760 nM.

Source of the values: US11440886B2, “Anti-inflammatory compound, and preparation and use thereof” (E-Nitiate Biopharmaceuticals (Hangzhou) Co., Ltd., priority 2018, dated 2022).
